Results taken from patent publication US9499561B2, “Fused pyrimidine compound, and preparation method, intermediate, composition, and uses thereof” (Shanghai Yingli Science and Technology Co., Ltd., priority 2012, dated 2016).

Experiments:
[1] = target: PI3Kα (Homo sapiens (Human), UniProt P42336); test: PI3Kα enzymatic inhibitory activity IC50 assay (Caliper Reader); format: biochemical
Experimental: (§1) Biological Effect Example 1 PI3Kα and PI3Kδ Enzymatic Inhibitory Activity IC50 Assay • 1. Buffer preparation: 50 mM HEPES, pH 7.5, 3 mM MgCl2, 1 mM EGTA, 100 mM NaCl, 0.03% CHAPS. • 2. Compound was formulated in 100% DMSO in a concentration gradient, deposited to a 384-well plate to make final DMSO concentration of 1%. • 3. PI3Kα and PI3Kδ enzymes were diluted to be the optimum concentration with the following buffer: 50 mM HEPES, pH 7.5, 3 mM MgCl2, 1 mM EGTA, 100 mM NaCl, 0.03% CHAPS, 2 mM DTT. Transferred to a 384-well plate and incubated with the compound for a certain time. • 4. […] The reaction was performed in a 384-well plate for 1 h at room temperature for PI3Kα and 2 hrs at room temperature for PI3Kδ. • 5. Read the conversion rate using Caliper Reader, and calculate the inhibition rate as the average of two tests.

[2] = target: PI3Kδ (Homo sapiens (Human), UniProt O00329); test: PI3Kδ enzymatic inhibitory activity IC50 assay (Caliper Reader); format: biochemical
Experimental: as §1

[3] = tested on: U87-MG; test: Cell proliferation inhibition assay (MTT), U87-MG; format: cell-based; conditions: 72 hrs
Experimental: (§2) Cancer cell lines (A549, PC3, or […]) in the logarithmic growth phase were plated at a density of about 3,000 per well in 96-well plates, 90 μL/well, using double wells for each concentration. Control wells containing corresponding concentration of vehicle and without cells were also prepared. After 24 hrs, positive control compound and example compounds were added to make 10 μL/well and final DMSO concentration of 0.5%. The cells were incubated with compounds for 72 hrs in the presence of 10% Invitrogen fetal bovine serum, 37° C., 5% CO2. 5 mg/mL MTT solution was added to make 10 μL/well, and incubated for 4 hours at 37° C. A ddH2O solution (10% SDS, 5% isobutanol, 10 mmol/L HCl) was added to make 100 μL/well and incubated overnight at 37° C.

[4] = tested on: PC3; test: Cell proliferation inhibition assay (MTT), PC3; format: cell-based; conditions: 72 hrs
Experimental: as §2

[5] = tested on: A549; test: Cell proliferation inhibition assay (MTT), A549; format: cell-based; conditions: 72 hrs
Experimental: as §2

[6] = Body weight of nude mice in the U87MG xenograft study, preliminary evaluation of compound toxicity; format: in vivo; conditions: for Body weight D 0: day 0; for Body weight D 20: day 20
Experimental: (§3) Groups of nude mice were implanted subcutaneously in the right hind back with 4×10^6 U87MG cells. Start dosing when mean tumor volume reached approximately 150 (100-200) mm^3. Grouping method: before dosing, animals were weighted, tumor sizes were measured, and randomized according to the tumor size (randomized block design), 8 mice per group. A solvent (0.5% CMC-Na+0.2% Tween-80) was dosed once daily by oral gavage for solvent control group, and pre-determined dose of test compound was dosed once daily by oral gavage for a dosing group, for 20 consecutive days.
(§4) Tumor diameters were measured twice a week with a vernier caliper. Tumor volume was calculated with formula: V=0.5a×b^2, a and b represent longer and shorter diameter of tumor. […] Meanwhile, the weight of nude mice in each group was weighed twice weekly for a preliminary evaluation of compound toxicity.

[7] = tested on: malignant glioma cell U87MG xenograft; test: Growth inhibition of malignant glioma cell U87MG xenograft in nude mice; format: in vivo; conditions: for TGI: 20 days; for Tumor size D 0: day 0; for Tumor size D 20: day 20
Experimental: as §3, §4

[8] = 20 mg/kg once daily oral gavage
[9] = 50 mg/kg once daily oral gavage
[10] = 150 mg/kg once daily oral gavage
[11] = 25 mg/kg once daily oral gavage

Sequence of PI3Kα (P42336 whole entry): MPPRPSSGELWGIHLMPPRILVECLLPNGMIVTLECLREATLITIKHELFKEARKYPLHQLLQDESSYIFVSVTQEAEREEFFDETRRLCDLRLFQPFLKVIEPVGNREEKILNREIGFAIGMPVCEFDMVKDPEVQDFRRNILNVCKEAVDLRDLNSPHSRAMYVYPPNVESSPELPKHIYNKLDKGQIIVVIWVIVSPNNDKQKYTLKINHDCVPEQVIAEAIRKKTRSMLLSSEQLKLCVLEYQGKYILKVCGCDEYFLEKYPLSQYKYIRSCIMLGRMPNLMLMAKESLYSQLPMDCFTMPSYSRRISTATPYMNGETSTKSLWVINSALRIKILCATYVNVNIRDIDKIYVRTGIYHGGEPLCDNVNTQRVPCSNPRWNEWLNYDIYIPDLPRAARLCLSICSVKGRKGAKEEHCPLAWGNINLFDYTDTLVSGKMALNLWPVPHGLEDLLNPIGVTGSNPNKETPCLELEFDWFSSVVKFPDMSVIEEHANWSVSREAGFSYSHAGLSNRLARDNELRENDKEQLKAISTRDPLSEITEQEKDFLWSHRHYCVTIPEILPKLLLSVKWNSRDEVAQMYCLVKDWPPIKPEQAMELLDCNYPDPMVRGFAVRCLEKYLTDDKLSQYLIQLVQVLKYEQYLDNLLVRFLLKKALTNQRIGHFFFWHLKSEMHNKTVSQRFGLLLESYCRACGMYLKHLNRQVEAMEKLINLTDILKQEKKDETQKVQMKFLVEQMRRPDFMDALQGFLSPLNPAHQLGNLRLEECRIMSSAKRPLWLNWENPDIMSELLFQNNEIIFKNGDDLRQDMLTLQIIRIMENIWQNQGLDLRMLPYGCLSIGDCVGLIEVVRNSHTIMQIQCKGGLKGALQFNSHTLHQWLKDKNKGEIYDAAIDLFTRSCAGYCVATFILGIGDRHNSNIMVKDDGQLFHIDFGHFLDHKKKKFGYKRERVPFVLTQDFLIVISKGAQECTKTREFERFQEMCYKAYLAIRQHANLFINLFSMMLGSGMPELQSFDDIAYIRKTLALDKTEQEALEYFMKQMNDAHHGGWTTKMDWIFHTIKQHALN
Sequence of PI3Kα (P27986 whole entry partner): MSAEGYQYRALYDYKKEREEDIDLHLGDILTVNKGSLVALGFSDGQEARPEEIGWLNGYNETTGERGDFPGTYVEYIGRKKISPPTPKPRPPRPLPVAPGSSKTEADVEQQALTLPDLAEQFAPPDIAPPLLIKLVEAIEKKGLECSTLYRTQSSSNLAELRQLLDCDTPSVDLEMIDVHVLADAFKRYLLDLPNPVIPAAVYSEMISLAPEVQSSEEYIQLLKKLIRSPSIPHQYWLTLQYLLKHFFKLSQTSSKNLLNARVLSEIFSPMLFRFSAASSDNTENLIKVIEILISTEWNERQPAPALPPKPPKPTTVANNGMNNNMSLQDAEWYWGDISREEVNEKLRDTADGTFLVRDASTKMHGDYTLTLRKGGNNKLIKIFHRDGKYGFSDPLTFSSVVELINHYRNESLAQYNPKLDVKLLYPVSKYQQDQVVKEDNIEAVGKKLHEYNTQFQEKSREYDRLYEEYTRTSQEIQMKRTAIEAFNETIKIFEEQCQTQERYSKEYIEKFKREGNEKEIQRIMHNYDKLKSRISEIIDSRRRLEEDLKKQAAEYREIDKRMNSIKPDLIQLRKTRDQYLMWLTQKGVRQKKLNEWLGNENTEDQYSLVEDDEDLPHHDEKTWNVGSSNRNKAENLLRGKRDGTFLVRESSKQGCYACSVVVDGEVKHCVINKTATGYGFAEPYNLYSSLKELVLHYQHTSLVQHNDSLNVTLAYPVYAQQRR
Sequence of PI3Kδ (O00329 whole entry): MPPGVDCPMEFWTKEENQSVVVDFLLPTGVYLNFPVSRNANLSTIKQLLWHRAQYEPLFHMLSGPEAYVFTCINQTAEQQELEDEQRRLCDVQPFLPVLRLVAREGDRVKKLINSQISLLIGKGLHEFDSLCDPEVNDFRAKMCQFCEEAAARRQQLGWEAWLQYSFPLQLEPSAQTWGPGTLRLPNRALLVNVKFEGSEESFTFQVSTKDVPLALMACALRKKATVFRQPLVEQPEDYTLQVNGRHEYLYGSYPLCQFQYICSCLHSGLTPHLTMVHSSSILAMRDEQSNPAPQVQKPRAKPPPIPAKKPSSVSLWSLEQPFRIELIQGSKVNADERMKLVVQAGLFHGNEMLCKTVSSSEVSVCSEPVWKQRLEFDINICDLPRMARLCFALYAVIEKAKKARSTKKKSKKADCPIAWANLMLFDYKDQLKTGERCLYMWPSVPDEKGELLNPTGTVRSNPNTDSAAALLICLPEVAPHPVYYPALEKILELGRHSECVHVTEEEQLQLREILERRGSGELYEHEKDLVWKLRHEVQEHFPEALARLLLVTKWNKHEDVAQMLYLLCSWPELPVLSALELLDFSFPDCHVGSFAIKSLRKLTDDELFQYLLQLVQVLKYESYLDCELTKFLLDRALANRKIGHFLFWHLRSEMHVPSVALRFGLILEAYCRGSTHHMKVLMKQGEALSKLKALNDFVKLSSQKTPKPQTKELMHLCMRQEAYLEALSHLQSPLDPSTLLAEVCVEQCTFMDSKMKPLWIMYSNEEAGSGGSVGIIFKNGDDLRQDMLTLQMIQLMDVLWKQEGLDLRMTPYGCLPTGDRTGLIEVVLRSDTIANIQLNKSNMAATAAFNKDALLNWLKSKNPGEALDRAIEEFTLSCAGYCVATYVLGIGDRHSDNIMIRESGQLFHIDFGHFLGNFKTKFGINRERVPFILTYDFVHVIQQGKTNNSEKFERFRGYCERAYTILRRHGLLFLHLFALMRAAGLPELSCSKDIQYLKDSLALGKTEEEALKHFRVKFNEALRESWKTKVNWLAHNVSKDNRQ
Sequence of PI3Kδ (P27986 whole entry partner): as the sequence (P27986 whole entry partner) above

| SMILES | IC50 [1] [µM] | IC50 [2] [µM] | IC50 [3] [µM] | IC50 [4] [µM] | IC50 [5] [µM] | also measured |
| --- | --- | --- | --- | --- | --- | --- |
| CC(C)(O)C(=O)N1CCN(Cc2csc3c(-c4cnc(N)nc4)nc(N4CCOCC4)nc23)CC1 [Compound 20] | 0.0462 | 0.052 |  |  |  |  |
| CS(=O)(=O)N1CCN(Cc2csc3c(-c4cccc5[nH]ncc45)nc(N4CCOCC4)nc23)CC1 [Compound 6] | 0.057 | 0.062 | 7.41 | 6.11 | 4.64 |  |
| Nc1ncc(-c2nc(N3CCOCC3)nc3c(CN4CCN(C(=O)CO)CC4)csc23)cn1 [Compound 28] | 0.024 | 0.038 | 4.46 | 1.94 | 2.6 |  |
| CS(=O)(=O)N1CCN(Cc2csc3c(-c4cncnc4)nc(N4CCOCC4)nc23)CC1 [Compound 15] | 0.104 | 0.2 |  |  |  |  |
| CN(Cc1csc2c(-c3cnc(N)nc3)nc(N3CCOCC3)nc12)C(=O)CO [Compound 32] | 0.032 |  |  |  |  |  |
| Cc1sc2c(-c3cnc(N)nc3)nc(N3CCOCC3)nc2c1CN1CCN(C(=O)CO)CC1 [Compound 29] | 0.018 | 0.007 | 3.74 | 1.49 | 2.7 | Body weight D 0 [6, 8]: 22.40 g; Body weight D 20 [6, 8]: 22.69 g; Body weight D 0 [6, 9]: 22.21 g; Body weight D 20 [6, 9]: 21.99 g; Body weight D 0 [6, 10]: 22.76 g; Body weight D 20 [6, 10]: 20.62 g; tolerability / toxic side effects (in words) ([6]; high dose (150 mg/kg)): the tested mice can still torelate even the high dose; TGI [7, 8]: 88.38%; Tumor size D 0 [7, 8]: 148.62 mm^3; Tumor size D 20 [7, 8]: 232.84 mm^3; TGI [7, 9]: 102.88%; Tumor size D 0 [7, 9]: 151.36 mm^3; Tumor size D 20 [7, 9]: 130.48 mm^3; TGI [7, 10]: 113.86%; Tumor size D 0 [7, 10]: 148.16 mm^3; Tumor size D 20 [7, 10]: 47.70 mm^3; ability to inhibit tumor growth compared with GDC-0941 (in words) ([7]; U87MG xenograft in nude mice): significantly better than GDC-0941; in vivo anti-tumor activity (in words) ([7]; U87MG xenograft in nude mice): strong in vivo anti-tumor activity |
| C[C@H](O)C(=O)N1CCN(Cc2csc3c(-c4cccc5[nH]ncc45)nc(N4CCOCC4)nc23)CC1 [Compound 27] | 0.076 | 0.018 |  |  |  |  |
| Cc1sc2c(-c3cnc(N)nc3)nc(N3CCOCC3)nc2c1CN1CCN(C(=O)[C@@H](C)O)CC1 [Compound 25] | 0.056 | 0.013 | 11.3 | 3.06 | 6.68 |  |
| CS(=O)(=O)N1CCN(Cc2csc3c(-c4ccc(N)nc4)nc(N4CCOCC4)nc23)CC1 [Compound 12] | 0.232 | 0.19 |  |  |  |  |
| Cc1sc2c(-c3cccc4[nH]ncc34)nc(N3CCOCC3)nc2c1CN1CCN(S(C)(=O)=O)CC1 [Compound 30] | 0.262 | 0.0604 |  |  |  |  |
| CS(=O)(=O)N1CCN(Cc2cc3nc(-c4cccc5[nH]ncc45)nc(N4CCOCC4)c3s2)CC1 [GDC-0941, reference compound] |  |  |  |  |  | Body weight D 0 [6, 11]: 22.24 g; Body weight D 20 [6, 11]: 23.64 g; Body weight D 0 [6, 9]: 22.47 g; Body weight D 20 [6, 9]: 23.57 g; TGI [7, 11]: 57.65%; Tumor size D 0 [7, 11]: 149.86 mm^3; Tumor size D 20 [7, 11]: 456.64 mm^3; TGI [7, 9]: 66.07%; Tumor size D 0 [7, 9]: 150.72 mm^3; Tumor size D 20 [7, 9]: 396.57 mm^3 |
| Cc1nc(N)ncc1-c1nc(N2CCOCC2)nc2c(CN3CCN(S(C)(=O)=O)CC3)csc12 [Compound 11] | 0.0131 | 0.0283 | 12.2 | 10.1 | 6.44 |  |
| Cc1sc2c(-c3cnc(N)nc3)nc(N3CCOCC3)nc2c1CN1CCN(C(=O)[C@H](C)O)CC1 [Compound 24] | 0.0189 | 0.0083 | 9.36 | 2.07 | 2.74 |  |
| Nc1ncc(-c2nc(N3CCOCC3)nc3ccoc23)cn1 [Compound 31] | 0.026 | 0.29 |  |  |  |  |
| Cc1nc(N)ncc1-c1nc(N2CCOCC2)nc2c(CN3CCN(C(=O)[C@H](C)O)CC3)csc12 [Compound 22] | 0.077 | 0.011 |  |  |  |  |
| CC(C)(O)C1CCN(Cc2csc3c(-c4cnc(N)nc4)nc(N4CCOCC4)nc23)CC1 [Compound 17] | 0.245 | 0.0654 | 7.81 | 5.39 | 4.82 |  |
| C[C@@H](O)C(=O)N1CCN(Cc2csc3c(-c4cccc5[nH]ncc45)nc(N4CCOCC4)nc23)CC1 [Compound 23] | 0.202 | 0.016 |  |  |  |  |
| Cc1nc(N)ncc1-c1nc(N2CCOCC2)nc2c(CN3CCN(C(=O)[C@H](C)O)CC3)csc12 [Compound 21] | 0.035 | 0.0047 |  |  |  |  |
| C[C@H](O)C(=O)N1CCN(Cc2csc3c(-c4cnc(N)nc4)nc(N4CCOCC4)nc23)CC1 [Compound 18] | 0.012 | 0.0126 | 8.87 | 2.31 | 3.64 |  |
| CS(=O)(=O)N1CCN(Cc2csc3c(-c4cccc(O)c4)nc(N4CCOCC4)nc23)CC1 [Compound 13] | 0.265 | 0.327 |  |  |  |  |
| C[C@@H](O)C(=O)N1CCN(Cc2csc3c(-c4cnc(N)nc4)nc(N4CCOCC4)nc23)CC1 [Compound 19] | 0.0514 | 0.0319 | 8.08 | 2.61 | 3.99 |  |
| Cc1sc2c(-c3cnc(N)nc3)nc(N3CCOCC3)nc2c1CN1CCN(CCO)CC1 [Compound 36] | 0.157 | 0.056 |  |  |  |  |
| O=C(CO)N1CCN(Cc2csc3c(-c4cccc5[nH]ncc45)nc(N4CCOCC4)nc23)CC1 [Compound 26] | 0.141 | 0.041 | 19.7 | 3.28 | 9.33 |  |
